Data as given in PMC4822253, “Inhibition of BMP and of TGFβ receptors downregulates expression of XIAP and TAK1 leading to lung cancer cell death” (Molecular Cancer, 2016).

How the values were obtained:
H1299 cells [1] = assay: Western blot analysis of cells in culture; format: cell-based
Description: Total cellular protein was prepared using RIPA buffer containing a protease inhibitor cocktail and protein concentration was measured using the BCA assay as described. In brief, protein was analyzed by SDS-PAGE, transferred to nitrocellulose (Schleicher and Schuell, Keene, NH). After blocking, the blots were incubated overnight at 4 °C with the appropriate primary antibody in Tris-buffered saline with 1 % Tween (TBST) and 5 % BSA. Secondary antibodies were applied for 1 h at room temperature. Specific proteins were detected using the enhanced chemiluminescence system (Amersham, Arlington Heights, IL). The primary antibodies that were used were rabbit monoclonal anti-pSmad 1/5, rabbit monoclonal anti-pSmad2, rabbit monoclonal anti-Smad2, rabbit monoclonal anti-pTAK1, rabbit monoclonal XIAP, rabbit anti-monoclonal p-p65, rabbit monoclonal anti-activated caspase-3, rabbit polyclonal anti-BMPRII, and rabbit monoclonal anti-EGR-1 (Cell signaling Technology, Danvers MA), Rabbit monoclonal anti-TAK1 (Invitrogen, Grand Island NY), rabbit anti-actin, an affinity isolated antigen specific antibody (Sigma, Saint Louis, MO), rabbit monoclonal anti-Id1 and rabbit monoclonal anti-Id3 (Calbioreagents, San Mateo, CA), rabbit polyclonal anti-GAPDH (Sigma, St. Louis, MO) and rabbit polyclonal pMEK-1/2 (Cell Signaling, Danvers MA).

H1299 Id1-luc cells = assay: Id1-promoter luciferase reporter assay; format: cell-based
Description: H1299 cells were stably transfected with the Id1-promoter luciferase reporter. Treated cells were lysed with 1X luciferase lysis buffer (Promega). Samples were added to luciferase assay substrate (Promega) and luminsescence measured by the TD-20/20 Luminometer (Turner Designs/Turner BioSystems, Sunnyvale, CA). Control samples included luciferase assay substrate alone and luciferase assay substrate plus 1X reporter lysis buffer.

H1299 cells [2] = assay: Cell death assay (ethidium bromide uptake); format: cell-based; conditions: H1299 cells; after 3 days
Description: Cells were plated in 6 well plates with 10^6 cells per well. Three days following treatment with inhibitor(s) and/or transfection the adherent and floating cells were harvested and incubated with 0.1 mg/ml of ethidium bromide. Cells that die by necrosis or apoptosis lose membrane integrity and take up ethidium bromide. Immediately after staining approximately 100 cells were counted and the percentage of cells that took up ethidium bromide was determined.

Alk3/BMPR1A = Alk3/BMPR1A (Homo sapiens, UniProt P36894); design: purchased Reaction Biology Corporation (Malvern, PA); method as in PMID 23639540; conditions: reported literature; cited from earlier work
BMPRII = target: T1, BMPRII (Homo sapiens, UniProt Q13873); design: method as in PMID 23639540; conditions: reported literature (Table 1); cited from earlier work
T1 construct: purchased Reaction Biology Corporation (Malvern, PA)
T1 sequence (Q13873 27-1038): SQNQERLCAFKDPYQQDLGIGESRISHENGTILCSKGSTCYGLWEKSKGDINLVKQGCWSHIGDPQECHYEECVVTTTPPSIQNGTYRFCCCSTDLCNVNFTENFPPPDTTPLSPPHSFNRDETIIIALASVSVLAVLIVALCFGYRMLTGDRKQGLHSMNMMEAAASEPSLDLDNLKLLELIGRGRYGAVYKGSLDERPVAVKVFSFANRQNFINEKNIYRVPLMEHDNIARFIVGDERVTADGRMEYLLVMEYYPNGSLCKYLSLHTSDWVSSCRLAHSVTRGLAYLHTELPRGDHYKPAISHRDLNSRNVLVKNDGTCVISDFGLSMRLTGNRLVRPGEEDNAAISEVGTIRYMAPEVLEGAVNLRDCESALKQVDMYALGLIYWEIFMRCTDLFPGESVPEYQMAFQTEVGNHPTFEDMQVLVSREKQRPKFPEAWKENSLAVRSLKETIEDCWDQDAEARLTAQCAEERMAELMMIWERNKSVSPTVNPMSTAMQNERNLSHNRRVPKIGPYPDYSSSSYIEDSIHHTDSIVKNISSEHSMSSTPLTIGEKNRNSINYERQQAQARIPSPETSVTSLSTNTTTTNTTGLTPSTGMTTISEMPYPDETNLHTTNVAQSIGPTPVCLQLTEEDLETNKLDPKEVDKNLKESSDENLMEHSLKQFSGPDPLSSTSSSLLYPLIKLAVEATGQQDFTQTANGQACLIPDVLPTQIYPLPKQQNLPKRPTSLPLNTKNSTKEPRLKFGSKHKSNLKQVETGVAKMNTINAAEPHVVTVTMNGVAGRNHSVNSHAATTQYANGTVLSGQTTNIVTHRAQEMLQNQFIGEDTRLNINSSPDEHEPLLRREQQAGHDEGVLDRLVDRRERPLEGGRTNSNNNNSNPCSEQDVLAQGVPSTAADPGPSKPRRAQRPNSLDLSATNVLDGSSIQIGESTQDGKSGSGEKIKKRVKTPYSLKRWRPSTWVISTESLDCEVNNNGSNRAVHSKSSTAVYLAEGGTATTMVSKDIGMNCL

Alk2/ACVRR1 = target: T2, Alk2/ACVRR1 (Homo sapiens, UniProt Q04771); design: purchased Reaction Biology Corporation (Malvern, PA); conditions: reported literature; read-out: IC50 Alk2/ACVRR1; cited from earlier work
T2 sequence (Q04771 21-509): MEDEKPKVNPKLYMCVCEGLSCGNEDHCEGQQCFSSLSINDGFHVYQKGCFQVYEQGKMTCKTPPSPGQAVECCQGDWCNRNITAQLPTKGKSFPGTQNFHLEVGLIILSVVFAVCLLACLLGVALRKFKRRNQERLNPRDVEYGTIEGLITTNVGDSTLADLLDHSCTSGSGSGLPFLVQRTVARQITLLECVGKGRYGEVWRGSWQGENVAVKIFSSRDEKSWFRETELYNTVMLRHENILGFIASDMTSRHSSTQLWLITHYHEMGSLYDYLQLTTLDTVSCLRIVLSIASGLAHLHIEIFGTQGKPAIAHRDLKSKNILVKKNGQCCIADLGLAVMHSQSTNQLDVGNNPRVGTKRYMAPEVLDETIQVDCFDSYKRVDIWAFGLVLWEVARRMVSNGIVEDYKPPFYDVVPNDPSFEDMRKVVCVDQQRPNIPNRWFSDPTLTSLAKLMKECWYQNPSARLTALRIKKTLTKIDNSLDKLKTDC

Alk5/TGFbetaR1 = target: T3, Alk5/TGFbetaR1 (Homo sapiens, UniProt P36897); conditions: cited from earlier work
T3 construct: purchased Reaction Biology Corporation (Malvern, PA)
T3 sequence (P36897 34-503): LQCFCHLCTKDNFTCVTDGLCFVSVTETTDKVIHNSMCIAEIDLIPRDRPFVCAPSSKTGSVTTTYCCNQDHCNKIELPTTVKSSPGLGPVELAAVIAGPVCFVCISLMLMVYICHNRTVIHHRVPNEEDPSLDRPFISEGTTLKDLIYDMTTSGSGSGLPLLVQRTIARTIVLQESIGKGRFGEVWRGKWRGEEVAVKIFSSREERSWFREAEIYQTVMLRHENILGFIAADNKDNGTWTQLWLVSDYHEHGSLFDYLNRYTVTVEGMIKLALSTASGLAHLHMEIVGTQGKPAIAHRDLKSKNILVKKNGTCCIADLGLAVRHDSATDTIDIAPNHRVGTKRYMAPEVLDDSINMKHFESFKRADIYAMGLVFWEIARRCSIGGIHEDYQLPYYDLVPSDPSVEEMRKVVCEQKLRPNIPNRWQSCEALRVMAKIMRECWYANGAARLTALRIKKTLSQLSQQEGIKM

A549 cells = assay: Cell counts (live cells, trypan blue); format: cell-based; conditions: compound alone, 7 days
Description: (§1) Cells were plated into 6 well plates at 10^5 cells per well and treated with 1 μM DMSO or antagonist for 7 days. The cells were detached with trypsin, stained with trypan blue, and the number of live cells counted using a hemocytometer.

H1299 cells [3] = assay: Cell counts (live cells, trypan blue); format: cell-based; conditions: compound alone, 7 days
Description: as §1

Chain of Alk3/BMPR1A (P36894 24-532): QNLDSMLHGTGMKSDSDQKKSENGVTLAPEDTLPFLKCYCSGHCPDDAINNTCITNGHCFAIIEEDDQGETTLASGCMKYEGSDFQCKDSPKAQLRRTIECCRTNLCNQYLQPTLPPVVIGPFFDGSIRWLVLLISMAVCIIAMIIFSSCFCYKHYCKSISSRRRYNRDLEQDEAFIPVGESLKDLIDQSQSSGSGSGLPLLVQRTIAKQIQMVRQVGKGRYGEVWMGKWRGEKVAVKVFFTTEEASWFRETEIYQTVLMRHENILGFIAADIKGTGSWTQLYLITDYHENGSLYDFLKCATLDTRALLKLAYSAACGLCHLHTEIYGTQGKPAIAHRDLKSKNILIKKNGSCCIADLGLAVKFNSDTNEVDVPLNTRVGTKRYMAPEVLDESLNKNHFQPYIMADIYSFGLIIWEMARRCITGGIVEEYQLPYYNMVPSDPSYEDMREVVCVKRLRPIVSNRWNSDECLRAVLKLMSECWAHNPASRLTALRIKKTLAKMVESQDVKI

Compound: COc1cc(O)c2c(c1)/C=C/C[C@H](O)[C@H](O)C(=O)/C=C\C[C@H](C)OC2=O [5Z, 5Z-7-oxozeaenol]
- expression of pSmad 1/5, Id1, and pTAK1 (H1299 cells [1]; H1299 cells, after 24 h): dose-related decrease
- expression of Id1, pSmad 1/5, and pTAK1 (H1299 cells [1]; H1299 cells, after 48 h): increasing
- Id1 promoter activity (H1299 Id1-luc cells; 2 μM, after 24 h): suppressed
- Id1 promoter activity (H1299 Id1-luc cells; after 48 h): no longer suppressed

Compound: CC(C)Oc1ccc(-c2cnc3c(-c4ccnc5ccccc45)cnn3c2)cc1 [DMH1]
- cell death (H1299 cells [2]): little cell death
- IC50 (Alk3/BMPR1A): 5 nM
- inhibition of BMPRII (BMPRII): does not occur
- IC50 (Alk2/ACVRR1): 108 nM
- expression of Smad2 (H1299 cells [1]; H1299 cells, 3 days): did not show significant regulation
- expression of XIAP (H1299 cells [1]; H1299 cells, after 3 days (cell line not stated for DMH1 and LDN)): did not downregulate
- activation of caspase-3 (H1299 cells [1]; H1299 cells, after 3 days, alone or in combination with SB): did not activate
- activation of Smad2 and TAK1 (H1299 cells [1]; in vitro 48 h, cell line not stated in legend): activation
- activity for TGFβ receptors (Alk5/TGFbetaR1): no activity

Compound: O=C(NOC[C@H](O)CO)c1ccc(F)c(F)c1Nc1ccc(I)cc1F [PD0325901]
- promoter activity of Id1 (Id-1 luciferase reporter) (H1299 Id1-luc cells; 48 h): did not regulate

Compound: Cc1cccc(-c2[nH]c(C(C)(C)C)nc2-c2ccc3c(c2)OCO3)n1 [SB]
- growth (cell counts) (A549 cells): growth suppression
- growth (cell counts) (H1299 cells [3]): little effect
- expression of Id1 (H1299 cells [1]; H1299 cells, compound alone, increasing doses): dose-related increase
- Id1 promoter activity (H1299 Id1-luc cells; compound alone): increase
